System: Female C57BL/6 mice
Assay: Animal study: lymphocytes and red blood cells in blood enumerated by hematology analyzer 24 hours after oral gavage
Type: in vivo
Conditions: oral gavage 400 micromol/kg, 24 hours later, vs vehicle (PEG300)
Method: Female C57BL/6 mice 6-8 weeks old were treated by oral gavage with vehicle (PEG300) or compound 510 at 400 micromol/kg. 24 hours later, lymphocytes and red blood cells (RBC) in blood were enumerated by hematology analyzer (XT-2000i). The results are depicted in FIG. 1.

number of red blood cells (RBC) in blood (FIG. 1B): remained unchanged
SMILES: CC(C)C(=O)N(CCO)[C@H]1CCN(c2nc3cc(F)c(F)cc3nc2-c2cccc(OC(F)(F)F)c2)C1 [Compound 510, (S)—N-(1-(6,7-difluoro-3-(3-(trifluoromethoxy)-phenyl)quinoxalin-2-yl)pyrrolidin-3-yl)-N-(2-hydroxyethyl)isobutyramide]
number of lymphocytes in blood (FIG. 1A): substantially reduced
